Source: patent US20180148418A1, “AMIDO-SUBSTITUTED CYCLOHEXANE DERIVATIVES” (Bayer Pharma Aktiengesellschaft, priority 2015, published 2018)
Where a name gives a salt, the structure may show the parent alone.

What was measured:
[1] = test system: HEK293 cells cotransfected with the FOP control vector; experiment: HEK293 FOP assay (control reporter with non-functional TCF elements); format: cell-based; details: Homo sapiens, 16 hours
Method in brief: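 Stable HEK293 line carrying FOP control reporter (randomized non-functional TCF sites, with pcDNA3), Geneticin-selected, plated 24 h before assay. Stimulated with recombinant human Wnt-3a (2500-5 ng/ml) and compounds 50 μM–15 nM (3.16-fold steps) in CAFTY buffer pH 7.4 with 2 mM Ca2+, 0.01% BSA, run parallel to TOP line.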

[2] = target: T1, TNKS1 (Homo sapiens, UniProt O95271); experiment: TNKS1 Assay B (auto-parsylation, [3H]-NAD+ SPA); format: biochemical; details: 6 nM TNKS1, auto-parsylation, over night at room temperature
T1 construct: purchased BPS Bioscience, San Diego, USA 80579 (TNKS1 Histone Ribosylation Assay Kit)
T1 sequence (O95271 1-1327): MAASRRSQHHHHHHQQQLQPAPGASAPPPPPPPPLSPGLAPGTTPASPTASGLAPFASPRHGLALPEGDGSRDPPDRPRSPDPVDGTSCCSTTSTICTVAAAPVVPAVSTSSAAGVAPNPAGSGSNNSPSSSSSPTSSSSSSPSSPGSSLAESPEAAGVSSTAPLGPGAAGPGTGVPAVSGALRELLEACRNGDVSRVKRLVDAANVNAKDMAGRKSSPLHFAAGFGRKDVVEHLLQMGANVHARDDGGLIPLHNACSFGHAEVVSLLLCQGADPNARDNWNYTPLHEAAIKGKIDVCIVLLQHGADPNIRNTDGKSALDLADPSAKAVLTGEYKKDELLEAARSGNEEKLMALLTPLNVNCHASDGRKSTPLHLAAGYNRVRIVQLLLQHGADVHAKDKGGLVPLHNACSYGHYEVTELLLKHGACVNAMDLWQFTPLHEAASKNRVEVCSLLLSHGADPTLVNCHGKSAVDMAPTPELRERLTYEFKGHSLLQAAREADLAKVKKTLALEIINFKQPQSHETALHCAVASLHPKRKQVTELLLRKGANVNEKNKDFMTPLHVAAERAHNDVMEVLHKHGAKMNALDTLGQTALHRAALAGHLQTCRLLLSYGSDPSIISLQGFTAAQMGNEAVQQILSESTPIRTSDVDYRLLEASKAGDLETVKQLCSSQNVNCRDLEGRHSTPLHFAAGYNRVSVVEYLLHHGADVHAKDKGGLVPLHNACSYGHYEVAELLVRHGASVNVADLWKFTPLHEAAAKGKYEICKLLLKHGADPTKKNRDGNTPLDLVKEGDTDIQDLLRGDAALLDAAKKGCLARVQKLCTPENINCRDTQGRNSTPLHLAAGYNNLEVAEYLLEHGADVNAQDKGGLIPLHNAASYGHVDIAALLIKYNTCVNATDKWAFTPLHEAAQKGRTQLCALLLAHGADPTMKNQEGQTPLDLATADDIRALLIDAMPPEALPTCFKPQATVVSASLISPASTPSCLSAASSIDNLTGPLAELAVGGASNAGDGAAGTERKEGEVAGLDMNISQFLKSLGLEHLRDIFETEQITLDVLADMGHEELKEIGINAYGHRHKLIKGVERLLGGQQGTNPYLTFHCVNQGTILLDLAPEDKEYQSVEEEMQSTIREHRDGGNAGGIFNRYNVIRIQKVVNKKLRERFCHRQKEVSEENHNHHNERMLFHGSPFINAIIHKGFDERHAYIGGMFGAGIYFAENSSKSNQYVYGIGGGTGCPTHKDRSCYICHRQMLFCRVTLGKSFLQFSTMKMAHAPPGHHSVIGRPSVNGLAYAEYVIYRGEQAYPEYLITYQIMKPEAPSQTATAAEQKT

`Cc1cc(C)n2ncc(C(=O)N[C@H]3CC[C@@]4(CCN(c5ccc(F)cc5)C4=O)CC3)c2n1` [Example 211, N-[(trans)-2-(4-fluorophenyl)-1-oxo-2-azaspiro[4.5]dec-8-yl]-5,7-di methyl pyrazolo[1,5-a]pyrimidine-3-carboxamide] showed an IC50 [1] of 25000 nM and an IC50 [2] of 430 nM.
Work on `CNC(=O)c1[nH]cnc1C(=O)N[C@H]1CC[C@@]2(CCN(c3ccc(F)cc3)C2=O)CC1` [Example 212, N^4-[(trans)-2-(4-fluorophenyl)-1-oxo-2-azaspiro[4.5]dec-8-yl]-N^5-methyl-1H-imidazole-4,5-dicarboxamide] yielded an IC50 [1] of 38000 nM and an IC50 [2] of 560 nM.
Work on `CCNC(=O)c1[nH]cnc1C(=O)N[C@H]1CC[C@@]2(CCN(c3ccc(F)cc3)C2=O)CC1` [Example 213, N^5-ethyl-N^4-[(trans)-2-(4-fluorophenyl)-1-oxo-2-azaspiro[4.5]dec-8-yl]-1H-imidazole-4,5-dicarboxamide] yielded an IC50 [1] of 30000 nM and an IC50 [2] of 340 nM.
`O=C(N[C@H]1CC[C@@]2(CCN(c3ccc(F)cc3Cl)C2=O)CC1)c1cnn2cc(CCO)cnc12` [Example 214, N-[(trans)-2-(2-chloro-4-fluorophenyl)-1-oxo-2-azaspiro[4.5]dec-8-yl]-6-(2-hydroxyethyl)pyrazolo[1,5-a]pyrimidine-3-carboxamide] showed an IC50 [1] of no less than 50000 nM and an IC50 [2] of 12 nM.
Work on `CNc1ccn2ncc(C(=O)N[C@H]3CC[C@@]4(CCN(c5ccc(F)cc5Cl)C4=O)CC3)c2n1` [Example 215, N-[(trans)-2-(2-chloro-4-fluorophenyl)-1-oxo-2-azaspiro[4.5]dec-8-yl]-5-(methylamino)pyrazolo[1,5-a]pyrimidine-3-carboxamide] yielded an IC50 [1] of no less than 50000 nM and an IC50 [2] of 7.5 nM.
`Cc1nn2cccnc2c1C(=O)N[C@H]1CC[C@@]2(CCN(c3ccc(F)cc3Cl)C2=O)CC1` [Example 216, N-[(trans)-2-(2-chloro-4-fluorophenyl)-1-oxo-2-azaspiro[4.5]dec-8-yl]-2-methylpyrazolo[1,5-a]pyrimidine-3-carboxamide] showed an IC50 [1] of no less than 50000 nM and an IC50 [2] of 570 nM.
Work on `CN(C)c1ccn2ncc(C(=O)N[C@H]3CC[C@@]4(CCN(c5ccc(F)cc5Cl)C4=O)CC3)c2n1` [Example 217, N-[(trans)-2-(2-chloro-4-fluorophenyl)-1-oxo-2-azaspiro[4.5]dec-8-yl]-5-(dimethylamino)pyrazolo[1,5-a]pyrimidine-3-carboxamide] yielded an IC50 [1] of no less than 50000 nM and an IC50 [2] of 6.1 nM.
Compound `COc1ccn2ncc(C(=O)N[C@H]3CC[C@@]4(CCN(c5ccc(F)cc5Cl)C4=O)CC3)c2n1` [Example 218, N-[(trans)-2-(2-chloro-4-fluorophenyl)-1-oxo-2-azaspiro[4.5]dec-8-yl]-5-methoxypyrazolo[1,5-a]pyrimidine-3-carboxamide] has an IC50 [1] of no less than 50000 nM and an IC50 [2] of 14 nM.
For `Cc1ccn2ncc(C(=O)N[C@H]3CC[C@@]4(CCN(c5ccc(F)cc5Cl)C4=O)CC3)c2n1` [Example 221, N-[(trans)-2-(2-chloro-4-fluorophenyl)-1-oxo-2-azaspiro[4.5]dec-8-yl]-5-methylpyrazolo[1,5-a]pyrimidine-3-carboxamide], the IC50 [1] was 18000 nM and the IC50 [2] was 11 nM.
`Cc1ccnc2c(C(=O)N[C@H]3CC[C@@]4(CCN(c5ccc(F)cc5Cl)C4=O)CC3)cnn12` [Example 222, N-[(trans)-2-(2-chloro-4-fluorophenyl)-1-oxo-2-azaspiro[4.5]dec-8-yl]-7-methylpyrazolo[1,5-a]pyrimidine-3-carboxamide] showed an IC50 [1] of no less than 50000 nM and an IC50 [2] of 13 nM.
In the case of `Cc1cc(C(F)F)n2ncc(C(=O)N[C@H]3CC[C@@]4(CCN(c5ccc(F)cc5Cl)C4=O)CC3)c2n1` [Example 224, N-[(trans)-2-(2-chloro-4-fluorophenyl)-1-oxo-2-azaspiro[4.5]dec-8-yl]-7-(difluoromethyl)-5-methylpyrazolo[1,5-a]pyrimidine-3-carboxamide], the IC50 [1] is reported as no less than 50000 nM and the IC50 [2] is reported as 14 nM.
In the case of `CC(C)(C)OC(=O)N1CCN(c2ccn3ncc(C(=O)N[C@H]4CC[C@@]5(CCN(c6ccc(F)cc6Cl)C5=O)CC4)c3n2)CC1` [Example 225, tert-butyl 4-(3-{[(trans)-2-(2-chloro-4-fluorophenyl)-1-oxo-2-azaspiro[4.5]dec-8-yl]carbamoyl}pyrazolo[1,5-a]pyrimidin-5-yl)piperazine-1-carboxylate], the IC50 [1] is reported as no less than 50000 nM and the IC50 [2] is reported as 6 nM.
`O=C(N[C@H]1CC[C@@]2(CCN(c3ccc(F)cc3Cl)C2=O)CC1)c1cnn2ccc(N3CCNCC3)nc12` [Example 226, N-[(trans)-2-(2-chloro-4-fluorophenyl)-1-oxo-2-azaspiro[4.5]dec-8-yl]-5-(piperazin-1-yl)pyrazolo[1,5-a]pyrimidine-3-carboxamide hydrochloric acid salt] gave an IC50 [1] of no less than 500 nM and an IC50 [2] of 8.2 nM.
`O=C(N[C@H]1CC[C@@]2(CCN(c3ccc(F)cc3Cl)C2=O)CC1)c1cnn2ccc(N3CCCC3)nc12` [Example 232, N-[(trans)-2-(2-chloro-4-fluorophenyl)-1-oxo-2-azaspiro[4.5]dec-8-yl]-5-(pyrrolidin-1-yl)pyrazolo[1,5-a]pyrimidine-3-carboxamide] showed an IC50 [1] of no less than 50000 nM and an IC50 [2] of 8.5 nM.
`O=C(N[C@H]1CC[C@@]2(CCN(c3ccc(F)cc3Cl)C2=O)CC1)c1cnn2c(C(F)(F)F)ccnc12` [Example 233, N-[(trans)-2-(2-chloro-4-fluorophenyl)-1-oxo-2-azaspiro[4.5]dec-8-yl]-7-(trifluoromethyl)pyrazolo[1,5-a]pyrimidine-3-carboxamide] showed an IC50 [1] of no less than 50000 nM and an IC50 [2] of 71 nM.
`O=C(N[C@H]1CC[C@@]2(CCN(c3ccccc3Cl)C2=O)CC1)c1cnn2cccnc12` [Example 256, N-[(trans)-2-(2-chlorophenyl)-1-oxo-2-azaspiro[4.5]dec-8-yl]pyrazolo[1,5-a]pyrimidine-3-carboxamide] showed an IC50 [1] of no less than 50000 nM and an IC50 [2] of 12 nM.
`Cc1cc(C)n2ncc(C(=O)N[C@H]3CC[C@@]4(CCN(c5ccccc5Cl)C4=O)CC3)c2n1` [Example 257, N-[(trans)-2-(2-chlorophenyl)-1-oxo-2-azaspiro[4.5]dec-8-yl]-5,7-dimethylpyrazolo[1,5-a]pyrimidine-3-carboxamide] gave an IC50 [1] of no less than 50000 nM and an IC50 [2] of 10 nM.
`CCNC(=O)c1nc[nH]c1C(=O)N[C@H]1CC[C@@]2(CCN(c3ccccc3Cl)C2=O)CC1` [Example 258, N^5-[(trans)-2-(2-chlorophenyl)-1-oxo-2-azaspiro[4.5]dec-8-yl]-N^4-ethyl-1H-imidazole-4,5-dicarboxamide] showed an IC50 [1] of no less than 50000 nM and an IC50 [2] of 13 nM.
`COCCNC(=O)c1nc[nH]c1C(=O)N[C@H]1CC[C@@]2(CCN(c3ccccc3Cl)C2=O)CC1` [Example 259, N^5-[(trans)-2-(2-chlorophenyl)-1-oxo-2-azaspiro[4.5]dec-8-yl]-N^4-(2-methoxyethyl)-1H-imidazole-4,5-dicarboxamide] showed an IC50 [1] of no less than 50000 nM and an IC50 [2] of 12 nM.
With `CC1CCN(CCNC(=O)c2nc[nH]c2C(=O)N[C@H]2CC[C@@]3(CCN(c4ccccc4Cl)C3=O)CC2)CC1` [Example 260, N^5-[(trans)-2-(2-chlorophenyl)-1-oxo-2-azaspiro[4.5]dec-8-yl]-N^4-[2-(4-methylpiperidin-1-yl)ethyl]-1H-imidazole-4,5-dicarboxamide] the IC50 [1] was no less than 50000 nM and the IC50 [2] was 7.4 nM.
Work on `CNC(=O)c1nc[nH]c1C(=O)N[C@H]1CC[C@@]2(CCN(c3ccccc3Cl)C2=O)CC1` [Example 264, N^5-[(trans)-2-(2-chlorophenyl)-1-oxo-2-azaspiro[4.5]dec-8-yl]-N^4-methyl-1H-imidazole-4,5-dicarboxamide] yielded an IC50 [1] of 33000 nM and an IC50 [2] of 20 nM.
Work on `Cc1cc(N2CC[C@]3(CC[C@@H](NC(=O)c4cnc5cccnn45)CC3)C2=O)c(Cl)cc1F` [Example 265, N-[(trans)-2-(2-chloro-4-fluoro-5-methylphenyl)-1-oxo-2-azaspiro[4.5]dec-8-yl]imidazo[1,2-b]pyridazine-3-carboxamide] yielded an IC50 [1] of no less than 50000 nM and an IC50 [2] of 6.4 nM.
